We go through 19 compounds from US11827627B2, “N-(hydroxyalkyl (hetero)aryl) tetrahydrofuran carboxamides as modulators of sodium channels” (VERTEX PHARMACEUTICALS INCORPORATED, priority 2021, dated 2023).

The target of this experiment is human NaV 1.8 (Homo sapiens, UniProt Q9Y5Y9). Nature of the experiment: E-VIPR assay detecting and measuring NaV inhibition properties. The experiment is classed as cell-based. Conditions: HEK cells expressing a truncated form of human NaV 1.8; electrical stimulation, membrane potential FRET dyes. The text has this: E-VIPR Assay Detecting and Measuring NaV Inhibition Properties
Chain of human NaV 1.8 (Q9Y5Y9 126-1722 limits assumed): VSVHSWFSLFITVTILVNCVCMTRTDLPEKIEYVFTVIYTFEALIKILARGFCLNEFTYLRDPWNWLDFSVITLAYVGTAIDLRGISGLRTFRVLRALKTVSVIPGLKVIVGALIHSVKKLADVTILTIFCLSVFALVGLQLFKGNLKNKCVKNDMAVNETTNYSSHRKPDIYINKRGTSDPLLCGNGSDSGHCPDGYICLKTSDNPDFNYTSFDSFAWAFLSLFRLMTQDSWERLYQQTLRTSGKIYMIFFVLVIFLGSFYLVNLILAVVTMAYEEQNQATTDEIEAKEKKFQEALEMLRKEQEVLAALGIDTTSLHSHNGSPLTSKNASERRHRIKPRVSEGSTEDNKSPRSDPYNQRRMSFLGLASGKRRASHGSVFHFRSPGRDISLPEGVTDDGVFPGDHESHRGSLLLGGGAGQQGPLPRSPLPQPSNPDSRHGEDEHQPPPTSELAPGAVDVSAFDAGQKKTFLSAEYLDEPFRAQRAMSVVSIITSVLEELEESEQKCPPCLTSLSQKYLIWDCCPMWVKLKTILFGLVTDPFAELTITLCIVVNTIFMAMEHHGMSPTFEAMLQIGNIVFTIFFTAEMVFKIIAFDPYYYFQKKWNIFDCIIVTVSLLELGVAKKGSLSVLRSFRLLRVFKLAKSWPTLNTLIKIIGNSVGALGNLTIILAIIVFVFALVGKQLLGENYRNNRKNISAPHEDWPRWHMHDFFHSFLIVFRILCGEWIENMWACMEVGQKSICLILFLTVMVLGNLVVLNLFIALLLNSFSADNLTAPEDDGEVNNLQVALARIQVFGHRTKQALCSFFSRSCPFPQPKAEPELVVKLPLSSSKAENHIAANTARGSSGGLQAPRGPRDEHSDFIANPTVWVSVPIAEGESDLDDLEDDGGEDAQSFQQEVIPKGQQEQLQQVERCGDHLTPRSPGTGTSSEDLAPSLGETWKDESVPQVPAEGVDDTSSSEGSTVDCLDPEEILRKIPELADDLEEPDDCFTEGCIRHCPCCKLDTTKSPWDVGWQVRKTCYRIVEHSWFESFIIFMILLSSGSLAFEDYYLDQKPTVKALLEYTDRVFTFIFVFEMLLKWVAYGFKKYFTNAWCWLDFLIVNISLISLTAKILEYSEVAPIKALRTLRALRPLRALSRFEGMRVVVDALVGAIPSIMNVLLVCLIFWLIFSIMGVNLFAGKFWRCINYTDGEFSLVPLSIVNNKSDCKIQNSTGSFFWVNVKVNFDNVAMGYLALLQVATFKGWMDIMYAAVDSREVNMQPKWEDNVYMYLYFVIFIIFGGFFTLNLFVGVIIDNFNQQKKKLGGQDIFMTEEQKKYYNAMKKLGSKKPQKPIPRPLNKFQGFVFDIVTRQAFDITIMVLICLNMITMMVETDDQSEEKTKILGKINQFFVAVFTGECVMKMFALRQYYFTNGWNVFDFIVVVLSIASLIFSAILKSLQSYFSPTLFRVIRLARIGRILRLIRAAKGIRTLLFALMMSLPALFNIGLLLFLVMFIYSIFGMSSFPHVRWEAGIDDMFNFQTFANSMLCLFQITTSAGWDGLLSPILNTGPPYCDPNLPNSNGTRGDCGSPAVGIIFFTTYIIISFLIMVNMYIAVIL
Sodium ion channels are voltage-dependent proteins that can be activated by inducing membrane voltage changes by applying electric fields. The electrical stimulation instrument and methods of use, referred to as E-VIPR, are described in International Publication No. WO 2002/008748 A3 and C.-J. Huang et al. Characterization of voltage-gated sodium channel blockers by electrical stimulation and fluorescence detection of membrane potential, 24 Nature Biotech. 439-46 (2006), both of which are incorporated by reference in their entirety. The instrument comprises a microtiter plate handler, an optical system for exciting the coumarin dye while simultaneously recording the coumarin and oxonol emissions, a waveform generator, a current- or voltage-controlled amplifier, and parallel electrode pairs that are inserted into assay plate wells. Under integrated computer control, this instrument passes user-programmed electrical stimulus protocols to cells within the wells of the microtiter plate.
16-20 hours prior to running the assay on E-VIPR, HEK cells expressing a truncated form of human NaV 1.8 with full channel activity were seeded into microtiter 384-well plates, pre-coated with matrigel, at a density of 25,000 cells per well. 2.5-5% KIR2.1 Bacmam virus was added to the final cell suspension before seeding into cell plates. HEK cells were grown in Dulbecco's Modified Eagle's Medium (DMEM) supplemented with 10% FBS (Fetal Bovine Serum, qualified; Sigma #F4135), 1% NEAA (Non-Essential Amino Acids, Gibco #11140), 1% HEPES (Gibco #15630), 1% Pen-Strep (Penicillin-Streptomycin; Gibco #15140) and 5 μg/ml Blasticidin (Gibco #R210-01). Cells were expanded in vented cap cell culture flasks, with 90-95% humidity and 5% CO2.
Reagents and Stock Solutions:
100 mg/mL Pluronic F-127 (Sigma #P2443), in dry DMSO
Compound Plates: Corning 384-well Polypropylene Round Bottom #3656
Cell Plates: 384-well tissue culture treated plates (Greiner #781091-2B)
2.5-5% KIR 2.1 Bacmam virus (produced in-house), prepared as described in Section 3.3 of J. A. Fornwald et al., Gene Expression in Mammalian Cells Using BacMam, a Modified Baculovirus System, 1350 Methods in Molecular Biology 95-116 (2016), the entire contents of which are incorporated by reference. The concentration used can be dependent on viral titer of each batch.
5 mM DiSBAC6(3), a voltage sensitive oxonol acceptor (CAS number 169211-44-3; 5-[3-(1,3-dihexylhexahydro-4,6-dioxo-2-thioxo-5-pyrimidinyl)-2-propen-1-ylidene]-1,3-dihexyldihydro-2-thioxo-4,6(1H,5H)-pyrimidinedione), in dry DMSO. The preparation of DiSBAC6(3) is analogous to that of DiSBAC4(3) as described in Voltage Sensing by Fluorescence Resonance Energy Transfer in Single Cells, Gonzalez, J. E. and Tsien, R. Y. (1995) Biophys. J. 69, 1272-1280.
5 mM CC2-DMPE, a commercially available membrane-bound coumarin phospholipid FRET donor (ThermoFisher Scientific catalog number K1017, CAS number 393782-57-5; tetradecanoic acid, 1,1′-[(1R)-1-[8-(6-chloro-7-hydroxy-2-oxo-2H-1-benzopyran-3-yl)-3-hydroxy-3-oxido-8-oxo-2,4-dioxa-7-aza-3-phosphaoct-1-yl]-1,2-ethanediyl]ester) was prepared in dry DMSO. See also, Improved indicators of cell membrane potential that use fluorescence resonance energy transfer, Gonzalez, J. E. and Tsien, R. Y. (1997) Chem. Biol. 4, 269-277.
Voltage Assay Background Suppression Compound (VABSC-1) is prepared in H2O (89-363 mM, range used to maintain solubility)
Human Serum (HS, Millipore #S1P1-01KL, or Sigma SLBR5469V and SLBR5470V as a 50%/50% mixture, for 25% assay final concentration)
Bath 1 Buffer: • Sodium Chloride 160 mM (9.35 g/L), Potassium Chloride, 4.5 mM (0.335 g/L), Glucose 10 mM (1.8 g/L), Magnesium Chloride (Anhydrous) 1 mM (0.095 g/L), Calcium Chloride 2 mM (0.222 g/L), HEPES 10 mM (2.38 g/L) in water. […]
Consider `COc1c([C@H]2[C@H](C(=O)Nc3ccc(C(O)CF)nc3)O[C@@](C)(C(F)(F)F)[C@H]2C)ccc(F)c1F` (single isomer, unassigned) [Compound 16, rel-(2R*,3S*,4S*,5R*)-3-(3,4-difluoro-2-methoxyphenyl)-N-(6-(2-fluoro-1-hydroxyethyl)pyridin-3-yl)-4,5-dimethyl-5-(trifluoromethyl)tetrahydrofuran-2-carboxamide], for which the IC50 is < 10 nM.

For the compound `CCOc1c([C@@H]2[C@@H](C(=O)Nc3ccc([C@@H](O)CO)nc3)O[C@](C)(C(F)(F)F)[C@@H]2C)ccc(F)c1C` (single isomer, unassigned) [Compound 41, rel-(2S,3R,4R,5S)—N-(6-((R*)-1,2-dihydroxyethyl)pyridin-3-yl)-3-(2-ethoxy-4-fluoro-3-methylphenyl)-4,5-dimethyl-5-(trifluoromethyl)tetrahydrofuran-2-carboxamide], the IC50 was ≥ 1000 nM.

In the case of `COc1c(C2C(C(=O)Nc3ccc(CO)nc3)OC(C)(C(F)(F)F)C2C)ccc(C(F)F)c1F` (single isomer, unassigned) [Compound 91], the IC50 is 10 to 100 nM.

For `CCOc1c([C@H]2[C@H](C(=O)Nc3ccc([C@H](O)CO)nc3)O[C@@](C)(C(F)(F)F)[C@H]2C)ccc(F)c1C` (single isomer, unassigned) [Compound 42, rel-(2R,3S,4S,5R)-N-(6-((S*)-1,2-dihydroxyethyl)pyridine-3-yl)-3-(2-ethoxy-4-fluoro-3-methylphenyl)-4,5-dimethyl-5-(trifluoromethyl)tetrahydrofuran-2-carboxamide], the IC50 is < 10 nM.

In the case of `CCOc1c([C@H]2[C@H](C(=O)Nc3ccc([C@@H](O)CO)nc3)O[C@@](C)(C(F)(F)F)[C@H]2C)ccc(F)c1F` [Compound 7, (2R,3S,4S,5R)-N-(6-((R)-1,2-dihydroxyethyl)pyridin-3-yl)-3-(2-ethoxy-3,4-difluorophenyl)-4,5-dimethyl-5-(trifluoromethyl)tetrahydrofuran-2-carboxamide], the IC50 was < 10 nM.

On to `COc1c(C2C(C(=O)Nc3ccc(C(O)CF)nc3)OC(C)(C(F)(F)F)C2C)ccc(F)c1F` (single isomer, unassigned) [Compound 17, rel-(2R*,3S*,4S*,5R*)-3-(3,4-difluoro-2-methoxyphenyl)-N-(6-(2-fluoro-l-hydroxyethyl)pyridin-3-yl)-4,5-dimethyl-5-(trifluoromethyl)tetrahydrofuran-2-carboxamide], for which the IC50 fell in the range of 10 to 100 nM.

Consider `COc1c(C2C(C(=O)Nc3ccc(CO)nc3)OC(C)(C(F)(F)F)C2C)ccc(F)c1C(F)F` (single isomer, unassigned) [Compound 53], for which the IC50 was < 10 nM.

As to `COc1c([C@H]2[C@H](C(=O)Nc3ccc([C@@H](O)CO)[n+]([O-])c3)O[C@@](C)(C(F)(F)F)[C@H]2C)ccc(F)c1F` [Compound 60, 5-((2R,3S,4S,5R)-3-(3,4-difluoro-2-methoxyphenyl)-4,5-dimethyl-5-(trifluoromethyl)tetrahydrofuran-2-carboxamido)-2-((R)-1,2-dihydroxyethyl)pyridine 1-oxide], the IC50 is < 10 nM.

Compound `C[C@]1(C(F)(F)F)C[C@@H](c2ccc(OC(F)(F)F)cc2Cl)[C@H](C(=O)Nc2ccc([C@@H](O)CO)nc2)O1` (single isomer, unassigned) [Compound 62, rel-(2R,3S,5R)-3-(2-chloro-4-(trifluoromethoxy)phenyl)-N-(6-((R*)-1,2-dihydroxyethyl)pyridin-3-yl)-5-methyl-5-(trifluoromethyl)tetrahydrofuran-2-carboxamide] gave an IC50 of 100 to 1000 nM.

Turning to `CCOc1c([C@H]2C[C@@](C)(C(F)(F)F)O[C@@H]2C(=O)Nc2ccc([C@H](O)CO)nc2)ccc(F)c1F` (single isomer, unassigned) [Compound 32, rel-(2S,3R,5S)-N-(6-((S*)-1,2-dihydroxyethyl)pyridin-3-yl)-3-(2-ethoxy-3,4-difluorophenyl)-5-methyl-5-(trifluoromethyl)tetrahydrofuran-2-carboxamide], the IC50 is ≥ 1000 nM.

`COc1c([C@H]2[C@H](C(=O)Nc3cnc(C(O)CO)nc3)O[C@@](C)(C(F)(F)F)[C@H]2C)cccc1C(F)(F)F` (single isomer, unassigned) [Compound 71] returned a 50% inhibitory concentration (IC50) of 100 to 1000 nM.

`Cc1c([C@H]2[C@H](C(=O)Nc3ccc([C@@H](O)CO)nc3)O[C@@](C)(C(F)(F)F)[C@H]2C)ccc(F)c1F` (single isomer, unassigned) [Compound 66, rel-(2R,3S,4S,5R)-3-(3,4-difluoro-2-methylphenyl)-N-(6-((R*)-1,2-dihydroxyethyl)pyridin-3-yl)-4,5-dimethyl-5-(trifluoromethyl)tetrahydrofuran-2-carboxamide] had an IC50 of 10 to 100 nM.

`COCC(O)c1ccc(NC(=O)[C@@H]2O[C@@](C)(C(F)(F)F)[C@@H](C)[C@H]2c2ccc(F)c(F)c2OC)cn1` (single isomer, unassigned) [Compound 20, rel-(2R*,3S*,4S*,5R*)-3-(3,4-difluoro-2-methoxyphenyl)-N-(6-(1-hydroxy-2-methoxyethyl)pyridin-3-yl)-4,5-dimethyl-5-(trifluoromethyl)tetrahydrofuran-2-carboxamide]: the concentration for half-maximal inhibition (IC50) lay within 10 to 100 nM.

Take `COc1c(C2C(C(=O)Nc3cnc(C(O)CO)nc3)OC(C)(C(F)(F)F)C2C)ccc(F)c1F` (single isomer, unassigned) [Compound 12]: the concentration for half-maximal inhibition (IC50) was 10 to 100 nM.

Turning to `COc1c(C2C(C(=O)Nc3cnc(CO)nc3)OC(C)(C(F)(F)F)C2C)ccc(F)c1C(F)F` (single isomer, unassigned) [Compound 55], the IC50 lay within 100 to 1000 nM.

For `COc1c([C@H]2[C@H](C(=O)Nc3cnc(CO)nc3)O[C@@](C)(C(F)(F)F)[C@H]2C)ccc(F)c1F` [Compound 15, (2R,3S,4S,5R)-3-(3,4-difluoro-2-methoxyphenyl)-N-(2-(hydroxymethyl)pyrimidin-5-yl)-4,5-dimethyl-5-(trifluoromethyl)tetrahydrofuran-2-carboxamide], the IC50 was < 10 nM.

As for `COc1c([C@H]2[C@H](C(=O)Nc3ccc([C@@H](O)CO)nc3)O[C@@](C)(C(F)(F)F)[C@H]2C)ccc(F)c1F` (single isomer, unassigned) [Compound 1], the IC50 was < 10 nM.

On to `COc1c([C@@H]2[C@@H](C(=O)Nc3ccc([C@@H](O)CO)nc3)O[C@](C)(C(F)(F)F)[C@@H]2C)ccc(F)c1C` (single isomer, unassigned) [Compound 46, rel-(2S,3R,4R,5S)-N-(6-((R*)-1,2-dihydroxyethyl)pyridin-3-yl)-3-(4-fluoro-2-methoxy-3-methylphenyl)-4,5-dimethyl-5-(trifluoromethyl)tetrahydrofuran-2-carboxamide], for which the IC50 is ≥ 1000 nM.

Consider `COc1c([C@H]2[C@H](C(=O)Nc3ccc([C@@H](C)O)nc3)O[C@@](C)(C(F)(F)F)[C@H]2C)ccc(F)c1F` [Compound 84, (2R,3S,4S,5R)-3-(3,4-difluoro-2-methoxyphenyl)-N-(6-((R)-1-hydroxyethyl)pyridin-3-yl)-4,5-dimethyl-5-(trifluoromethyl)tetrahydrofuran-2-carboxamide], for which the IC50 is < 10 nM.
